Experimental findings from ChEMBL document CHEMBL5325414, “Novel neuroprotective pyromeconic acid derivatives with concurrent anti-Aβ deposition, anti-inflammatory, and anti-oxidation properties for treatment of Alzheimer's disease” (Eur J Med Chem, 2023) are described below.

For orientation: inhibition means the drop in the measured response relative to a control, in per cent. The IC50 is the concentration needed to halve the response being measured.

Assay [1] is described as follows: Antioxidant activity by measuring oxygen radical absorbance capacity-fluorescein values. Type of assay: functional.
Assay [2] has as its target T1, Amyloid-beta precursor protein (Homo sapiens, UniProt P05067). The assay is described as follows: Inhibition of amyloid beta (1 to 42) (unknown origin) self aggregation at 50 uM relative to control.
Assay [3] relates to BV-2. Kind of assay: Antiinflammatory activity in LPS induced mouse BV-2 cells decrease in release of […] at 5 uM by […] (reference value: 100%). Type of assay: functional.
The target of assay [4] is T1, Amyloid-beta precursor protein. Kind of assay: Inhibition of amyloid beta (1 to 42) (unknown origin) self aggregation assessed as disaggregation relative to control. Further details: concentration or dose not given beside the values. Particulars: concentration not given here.
For assay [5] the target is unchanged. The assay is described as follows: Inhibition of amyloid beta (1 to 42) (unknown origin) self aggregation assessed as disaggregation.
Assay [6] has the same target. The assay is described as follows: Inhibition of amyloid beta (1 to 42) (unknown origin) self aggregation.

T1 sequence (P05067 whole entry): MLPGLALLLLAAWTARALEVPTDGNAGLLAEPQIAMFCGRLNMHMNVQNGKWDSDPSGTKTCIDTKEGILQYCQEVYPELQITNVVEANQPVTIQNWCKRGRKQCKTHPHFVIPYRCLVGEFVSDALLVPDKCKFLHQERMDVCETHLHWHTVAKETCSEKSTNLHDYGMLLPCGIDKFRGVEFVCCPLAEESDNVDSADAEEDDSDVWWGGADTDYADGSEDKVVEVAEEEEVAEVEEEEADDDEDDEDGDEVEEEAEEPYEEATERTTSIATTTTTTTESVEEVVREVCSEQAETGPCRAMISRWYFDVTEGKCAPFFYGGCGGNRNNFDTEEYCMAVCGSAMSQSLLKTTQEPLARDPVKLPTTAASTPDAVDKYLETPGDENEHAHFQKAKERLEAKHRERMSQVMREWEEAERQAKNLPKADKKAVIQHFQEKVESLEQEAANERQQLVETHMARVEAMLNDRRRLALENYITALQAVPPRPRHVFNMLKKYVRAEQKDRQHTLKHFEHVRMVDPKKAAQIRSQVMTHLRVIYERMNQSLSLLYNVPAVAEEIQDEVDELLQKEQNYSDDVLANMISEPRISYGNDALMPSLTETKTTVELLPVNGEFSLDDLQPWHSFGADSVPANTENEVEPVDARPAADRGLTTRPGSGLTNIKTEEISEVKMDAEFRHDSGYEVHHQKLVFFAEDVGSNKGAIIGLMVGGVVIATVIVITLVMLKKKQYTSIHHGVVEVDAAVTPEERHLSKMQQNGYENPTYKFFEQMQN

In turn, `O=c1ccoc(/C=C/c2cccc(F)c2)c1O` registered an Activity index in assay [1] of 1.55. The results for the inhibition in assay [2] and in assay [4] were 24.2% and 18.5%, respectively. Moreover, in assay [3], the “Nitric oxide release (% of LPS control)” value turned out to be 71.55%.

In assay [1], `O=c1ccoc(/C=C/c2ccc(-c3ccccc3)cc2)c1O` showed an Activity index of 0.4. Moreover, the values for the inhibition in assay [2] and in assay [4] were 52% and 46.7%, respectively. The “Nitric oxide release (% of LPS control)” value in assay [3] is listed as 87.38%.

`O=c1ccoc(/C=C/c2cccc(Cl)c2)c1O` gave an Activity index in assay [1] of 1.21. Also, the inhibition in assay [2] worked out at 23.2%; in assay [4], 28.2%. In addition, the “Nitric oxide release (% of LPS control)” value in assay [3] worked out at 88.17%.

As for `O=c1ccoc(/C=C/c2ccc(N3CCSCC3)cc2)c1O`, the concentration for half-maximal inhibition (IC50) in assay [5] worked out at 28.5 µM; in assay [6], 46.8 µM. Besides, the Activity index in assay [1] is 1.48. The inhibition in assay [2] is 53.9%; in assay [4] it was 62.8%. Besides, the “Nitric oxide release (% of LPS control)” value in assay [3] is listed as 98.13%.

In turn, `COc1cc(/C=C/c2occc(=O)c2O)ccc1O` showed an Activity index in assay [1] of 1.96. The inhibition in assay [2] worked out at 48.5%; in assay [4], 42.9%. For the same compound, the “Nitric oxide release (% of LPS control)” value in assay [3] is on record as 90.67%.

For `CN1CCN(c2ccc(/C=C/c3occc(=O)c3O)cc2)CC1`, the Activity index in assay [1] stood at 2.33. The inhibition in assay [2] came to 30.6%; in assay [4], 56.1%. The “Nitric oxide release (% of LPS control)” value in assay [3] came to 96.04%.

Take `O=c1ccoc(/C=C/c2ccc([N+](=O)[O-])cc2)c1O`: the IC50 in assay [5] turned out to be 26.3 µM; in assay [6] it was 38.2 µM. Further, the Activity index in assay [1] was determined as 0.79. Besides, the inhibition in assay [2] was found to be 56.8%; in assay [4], 62.8%. The “Nitric oxide release (% of LPS control)” value in assay [3] was found to be 88.99%.

Regarding `CN(C)c1ccc(/C=C/c2occc(=O)c2O)cc1`, the IC50 in assay [5] was 42.4 µM; in assay [6] it was 47.2 µM. The compound further came in with an Activity index in assay [1] of 0.87. In addition, the inhibition in assay [2] was 53.7%; in assay [4], 47.6%. For the same compound, the “Nitric oxide release (% of LPS control)” value in assay [3] is 92.3%.

In assay [1], `O=c1ccoc(/C=C/c2ccc(O)cc2)c1O` returned an Activity index of 2.79. In addition, the inhibition in assay [2] stood at 36.7%; in assay [4], 29.6%. Besides, in assay [3], the “Nitric oxide release (% of LPS control)” value was 86.81%.

Compound `COc1ccc(/C=C/c2occc(=O)c2O)cc1OC` showed an Activity index in assay [1] of 1.73. The inhibition is 10.4% in assay [2] and 20.6% in assay [4]. In addition, in assay [3], the “Nitric oxide release (% of LPS control)” value was 97.14%.

In turn, `O=c1ccoc(/C=C/c2ccccc2F)c1O` gave an Activity index in assay [1] of 1.49. In addition, the inhibition in assay [2] stood at 19.9%; in assay [4], 12.6%. Further, the “Nitric oxide release (% of LPS control)” value in assay [3] came to 56.97%.

The compound `CC(C)(C)c1ccc(/C=C/c2occc(=O)c2O)cc1` yielded an Activity index in assay [1] of 0.07. Besides, the inhibition turned out to be 37.7% in assay [2] and 31.6% in assay [4]. The “Nitric oxide release (% of LPS control)” value in assay [3] is recorded as 94.03%.

As to `N#Cc1ccc(/C=C/c2occc(=O)c2O)cc1`, the Activity index in assay [1] is 1.9. The inhibition in assay [2] was 16.8%; in assay [4] it was 17%. For the same compound, the “Nitric oxide release (% of LPS control)” value in assay [3] amounted to 88%.

Take `COc1ccc(/C=C/c2occc(=O)c2O)cc1O`: the 50% inhibitory concentration (IC50) in assay [5] is 43.2 µM; in assay [6], 43.7 µM. Moreover, in assay [1], the Activity index stood at 1.62. For the same compound, the figures for the inhibition in assay [2] and in assay [4] were 57.4% and 48.9%, respectively. Besides, in assay [3], the “Nitric oxide release (% of LPS control)” value stood at 90.08%.

Take `O=c1ccoc(/C=C/c2ccc3ccccc3c2)c1O`: the Activity index in assay [1] came out at 1.38. Moreover, the inhibition worked out at 50.6% in assay [2] and 45.9% in assay [4]. Also, in assay [3], the “Nitric oxide release (% of LPS control)” value is listed as 102.37%.

`O=c1ccoc(/C=C/c2ccc(C(F)(F)F)cc2)c1O` returned an Activity index in assay [1] of 0.12. The results for the inhibition in assay [2] and in assay [4] were 30.5% and 25.9%, respectively. The “Nitric oxide release (% of LPS control)” value in assay [3] is given as 88.82%.

For the compound `Oc1ccc(/C=C/c2cc(O)cc(O)c2)cc1` [RESVERATROL], the inhibition in assay [2] was 73.2%. In assay [3], the “Nitric oxide release (% of LPS control)” value is reported as 86.97%.

`COc1ccccc1/C=C/c1occc(=O)c1O` showed an Activity index in assay [1] of 0.79. In addition, the inhibition is 23.5% in assay [2] and 30.9% in assay [4]. Also, the “Nitric oxide release (% of LPS control)” value in assay [3] was determined as 77.3%.

Compound `COc1ccc(/C=C/c2occc(=O)c2O)cc1` came in with an Activity index in assay [1] of 0.75. Also, the inhibition stood at 34% in assay [2] and 39% in assay [4]. In assay [3], the “Nitric oxide release (% of LPS control)” value is recorded as 91.49%.

In assay [1], `O=c1ccoc(/C=C/c2ccccc2Cl)c1O` yielded an Activity index of 1.13. Also, the inhibition was 27.7% in assay [2] and 19.2% in assay [4]. Besides, the “Nitric oxide release (% of LPS control)” value in assay [3] amounted to 54.58%.

As for `O=c1ccoc(/C=C/c2ccc(O)c(F)c2)c1O`, in assay [1], the Activity index came out at 2.78. In addition, the values for the inhibition in assay [2] and in assay [4] were 36.1% and 32.2%, respectively. For the same compound, in assay [3], the “Nitric oxide release (% of LPS control)” value stood at 86.66%.

Regarding `O=c1ccocc1O`, the Activity index in assay [1] turned out to be 1.75. Also, in assay [3], the “Nitric oxide release (% of LPS control)” value is recorded as 93.85%.

In assay [1], `O=c1ccoc(/C=C/c2ccc(F)c(O)c2)c1O` returned an Activity index of 3.19. Further, the inhibition turned out to be 23.8% in assay [2] and 24% in assay [4]. Further, the “Nitric oxide release (% of LPS control)” value in assay [3] stood at 93.87%.

Take `Cc1ccc(/C=C/c2occc(=O)c2O)cc1`: in assay [1], the Activity index stood at 0.32. Also, the inhibition in assay [2] was found to be 28.6%; in assay [4] it was 15.1%. The “Nitric oxide release (% of LPS control)” value in assay [3] was determined as 85.2%.

For `Cc1c(C)c2c(c(C)c1O)CCC(C)(C(=O)O)O2` (stereo not drawn), the Activity index in assay [1] was determined as 1.

The compound `COc1cccc(/C=C/c2occc(=O)c2O)c1` came in with an Activity index in assay [1] of 0.8. Also, the inhibition in assay [2] is 13.6%; in assay [4], 42.8%. For the same compound, the “Nitric oxide release (% of LPS control)” value in assay [3] is listed as 72.79%.

`O=c1ccoc(/C=C/c2ccc(F)cc2)c1O`: the Activity index in assay [1] turned out to be 1.13. Moreover, the values for the inhibition in assay [2] and in assay [4] were 8.6% and 14.8%, respectively. Further, in assay [3], the “Nitric oxide release (% of LPS control)” value is given as 88.36%.

`COC(=O)c1ccc(/C=C/c2occc(=O)c2O)cc1` came in with an Activity index in assay [1] of 0.25. In addition, the inhibition in assay [2] came to 33.7%; in assay [4] it was 27.6%. The “Nitric oxide release (% of LPS control)” value in assay [3] is given as 71.82%.

In assay [1], `O=c1ccoc(/C=C/c2ccccc2)c1O` returned an Activity index of 0.52. Also, the inhibition in assay [2] is 7.59%; in assay [4] it was 8.21%. The “Nitric oxide release (% of LPS control)” value in assay [3] stood at 78.21%.

With `O=c1ccoc(/C=C/c2ccc(N3CCCCC3)cc2)c1O`, the results for the IC50 in assay [5] and in assay [6] were 27.2 µM and 33.4 µM, respectively. Also, the Activity index in assay [1] was 2.21. Further, the inhibition in assay [2] came out at 59.6%; in assay [4], 60.5%. The “Nitric oxide release (% of LPS control)” value in assay [3] is 100.49%.

As to `O=c1ccoc(/C=C/c2ccc(Cl)cc2)c1O`, the Activity index in assay [1] is 1.02. The inhibition in assay [2] stood at 30.4%; in assay [4], 26.9%. Also, in assay [3], the “Nitric oxide release (% of LPS control)” value amounted to 97.73%.

Consider `O=c1ccoc(/C=C/c2ccc(N3CCOCC3)cc2)c1O`, for which the IC50 in assay [5] worked out at 23.9 µM; in assay [6], 49.4 µM. Besides, the Activity index in assay [1] turned out to be 2.25. Further, the inhibition in assay [2] is 50.4%; in assay [4], 65.8%. The “Nitric oxide release (% of LPS control)” value in assay [3] was 100.11%.
